We go through one molecule from patent US12570643B2, “3-aryloxy-3-five-membered heteroaryl propylamine compound, and crystal form and use thereof” (Shanghai Leado Pharmatech Co. Ltd., priority 2019, dated 2026).

Test [1] relates to postoperative pain model in rat. Put plainly: Postoperative pain model in rat, mechanical hyperalgesia test. The format is in vivo. The note with it: 10 mg/kg intramuscular injection. As to the method:
Injection of compound I-1: 36.13 mg of compound I-1 prepared in Example 2 was weighed and added into 3.140 mL of normal saline, and well mixed by vortex;
The solvent of the test compound I-1 was normal saline, the administration dose was 10 mg/kg, and the administration method was intramuscular injection. 36.13 mg of the compound I-1 was weighed and added into 3.140 mL normal saline, and well mixed by vortex. The reference compound used in the experiment was bupivacaine injection, purchased from Shanghai Zhaohui Pharmaceutical Co., Ltd., in a dose of 10 mg/kg via intramuscular injection.
Aseptic operation was performed during surgery, surgical instruments (scissors, forceps, scalpel, surgical cotton, suture thread) were disinfected before the operation. The rats were anesthetized with sodium pentobarbital (50 mg/kg, intraperitoneal injection), and the toes of the rats were squeezed to confirm that the animals were completely anesthetized before the surgery. Ophthalmic ointment was applied to the animal's eyes to prevent the animal's cornea from drying out. Iodophor and 70% ethanol were used to disinfect the skin of the surgery area on the sole of the left hind foot three times, and the surgery was started after the skin was dried. Starting at 0.5 cm from the heel, a 1 cm long incision was made longitudinally toward the toe. After cutting the skin, the flexor digitorum brevis was lifted to make longitudinal blunt injury. After pressing to stop the bleeding, the wound was sutured. The surgical instruments were cleaned and sterilized with hot bead sterilizer. After the surgery, the animals were placed on an electric blanket and injected subcutaneously with 5 mL normal saline to prevent dehydration. When the animal was completely awake (free to move), put the animal back into the cage. […]
The rat was placed alone in a plexiglass box with a grid on the bottom of the box to ensure that the rat's feet can be tested. […] During the test, the animal's rapid foot shrinkage was recorded as a pain response. The animal's foot shrinkage when the test fiber left the animal's skin was also recorded as a pain response. If the animal moved or walked, it would not be recorded as the pain response, the test should be repeated. […] The mechanical hyperalgesia test results are recorded in the table of FIG. 10, in which pain response is indicated with an “x” and no pain response is indicated with an “o.”
Mechanical hyperalgesia was expressed as the paw withdrawal threshold (PWT) in the behavioral test of rats, which was calculated according to the following equation: 50% response threshold (g)=(10(Xf+k))/10,000 • Xf=the final test fiber value used in the test • K=table value (Chaplan et al. 1994, page 62) • □=Average difference 5. […]

A further test concerns HepG2 cells. Put plainly: Hepatocyte toxicity (CCK-8 cytotoxicity test). The format is cell-based. The note with it: Homo sapiens, 72 hours, read-out: hepatotoxicity (IC50). Here is the method: HepG-2 and SH-SY5Y cells were prepared and placed in 10 cm dish and incubated at 37° C., 5% CO2 in a cell incubator; the cells were digested with trypsinize, resuspended and then counted. Based on a system of 100 μl/well, 8000 cells were transferred to a 96-well plate. The cells were incubated in a 37° C., 5% CO2 cell incubator for 24 hours; a gradient concentration system of compound I-1 (prepared in Example 2) was prepared, 2 times diluted, the system was 100 μl/well. The supernatant in the 96-well plate cell culture system on the first day was removed, and a fresh prepared drug concentration system was added to the corresponding culture plate wells culturing cells (set up duplicate wells). […] After completion of the culture, the supernatant was removed from the cell culture system of the 96-well plate, 100 μl of detection solution (medium containing 10% CCK-8) was add to each well, and incubated in a cell incubator at 37° C. and 5% CO2 for 1 hour, then taken it out and measured the absorbance at 450 nm with a microplate reader. Data were processed, cytotoxicity was calculated, and IC50 was calculated by GraphPad Prism. […]
A (dosing): absorbance of the well having cells, CCK-8 solution and drug solution
A (blank): absorbance of the well having medium and CCK-8 solution, without cells.
A (0 dosing): absorbance of the well having cells and CCK-8 solution, without drug solution […]
Background: Tetrazolium dyes change colour on reduction, which living cells bring about.

In a further test the test system is SNL model in rat. Put plainly: SNL model in rat, mechanical hyperalgesia test. The format is in vivo, SD rats. The note with it: 10 mg/kg intragastric, 1 hour after administration, hydrochloride used; control group 3.967 ± 0.775.

Molecules are shown by their SMILES.

Experimental for SNL model in rat: SD rats were taken for surgery, male, SPF grade, mass 150 g-180 g. The surgical procedure was performed aseptically. The animals were anesthetized with sodium pentobarbital (50 mg/kg, intraperitoneal injection). The surgical area of the waist of animals was shaved, and the skin was disinfected three times with iodophor and 70% ethanol. Start the operation after the skin was dry. A longitudinal incision was made in the posterior part of the sacral bone of the animal's waist with a scalpel to expose the left paravertebral muscles, and the muscle tissue was separated with a distractor to expose the vertebra. The left spinal nerves L5 and L6 were separated, ligated with 6-0 silk thread, and the wounds were sutured. After the surgery, the animals were placed on an electric blanket and injected subcutaneously with 5 mL normal saline to prevent dehydration. When the animal was completely awake (free to move), put the animal back into the cage.
After the surgery, the animals were adapted in the experimental environment for 15 minutes/day for 3 days.
After administration, mechanical hyperalgesia test was performed. The rats were placed individually in a plexiglas box with a grid at the bottom of the box to ensure that the feet of the rats can be tested. Rats would adapt for 15 minutes before the test. […] The rapid paw withdrawal of the animal during the test was recorded as a pain response. The paw withdrawal of the animal when the test fiber left the animal's skin was also recorded as a pain response. If the animal moved or walked, it will not be recorded as a pain response, the test should be repeated. […]
Mechanical hyperalgesia was expressed as the paw withdrawal threshold (PWT) in the behavioral test of rats, which was calculated according to the following equation: 50% response threshold (g)=(10(^Xf+kδ))/10,000 • Xf=the final test fiber value used in the test • K=table value • δ=Average difference
Data were collected using Excel software and analyzed using Prism 6.01 (Graph pad software, Inc.) software.

As usually defined, the IC50 is the concentration that inhibits the measured activity by half. For the molecule `CNCC[C@@H](Oc1cccc2ccoc12)c1cccs1` [Compound I-1, (R)-3-(benzofuran-7-yloxy)-N-methyl-3-(thiophen-2-yl)propan-1-amine], the “PWT” value stood at 5.885 g in test [1] (1 hour after administration, Normal Saline 3.561) and 7.869 ± 2.846 g in the test with SNL model in rat. Also, in test [1] (2 hours after administration, Normal Saline 3.382), the “PWT (g)” value was 5.135. g. In addition, the IC50 in the test with HepG2 cells was approximately 114 µM.
